Source: US11039618B2, “Metam salts and polysulfide soil treatment” (Tessenderlo Kerley, Inc, priority 2016, dated 2021)

Legend:
Verticillium = experiment: Jar test 2016: Verticillium microsclerotia colonies in treated soil, dry soil plating on NP-10; assay type: cell-based, Verticillium dahliae; conditions: 2016 test; microsclerotia colonies per gram of soil post-treatment; soil 20% water content; 4 replicates
Procedure: These investigations were performed under laboratory conditions in an initial jar test. We also investigated the pathogen control efficacy of LSS treatments, at 30 gal/acre (90 pounds/acre or 101 Kg/ha of calcium polysulfide) and at 90 gal/acre (276 pounds/acre or 310 Kg/ha of calcium polysulfide), and combined Metam/LSS treatments using Sectagon® brand metam at 20 gal/acre Metam (84 pounds/acre or 94 Kg/ha of metam sodium) with 40 gal/acre LSS (122 pounds/acre or 138 Kg/ha of calcium polysulfide); and at 30 gal/acre Metam (126 pounds/acre or […] of metam sodium) with 20 gal/acre LSS (60 pounds/acre or 67 kg/ha of calcium polysulfide). […] This may be due to lower water saturation in the 2016 tests compared to the saturation in 2015 tests, which was near 100%.
Each treatment listed in Table 1 was replicated 4 times. Verticillium levels in soil were assessed by dry incubation on semi selective media (NP-10) method. Soil collected from a Romaine lettuce field in Salinas, Calif. was used for the investigation. […]
Experimental Setup: Seven treatments were installed in 4 replicates each. […] The equivalent of gal/acre was calculated on the assumption that on acre of soil has an average weight of 3,625,895 lbs. […] Afterwards, soil was split between the two laboratories and were assessed according to the method described.
Verticillium levels in soil were assessed by dry incubation on semi selective media (NP-10). […]
The quantity of Verticillium in soil was assessed by dry soil plating on NP-10 semi-selective medium. […] After that, remaining soil was gently washed off the plates and the number of Verticillium microsclerotia colonies were counted on each plate under a microscope. The number of microsclerotia colonies is used as a standard method to quantify Verticillium in soil and was extrapolated for 1 g soil.
Results were analyzed in a one-way ANOVA (P=0.05) and a Fisher LSD Post-Hoc test. […]
Verticillium assessments were performed parallel in two separate laboratories. […] The quantity of Verticillium in soil was assessed by dry soil plating on NP-10 semi-selective medium. […]

[1] = test system: artificially infested V. dahliae soil; experiment: Greenhouse eggplant bioassay (plant height) in treated, artificially infested V. dahliae soil; assay type: in vivo; conditions: preliminary; for eggplant height Jul. 27, 2017: soil treated Jun. 27, 2017, eggplant transplanted July 13, rates gal/acre on 12 inch soil depth, letters after value = statistical grouping, untreated 118; for eggplant height Aug. 4, 2017 / eggplant height Aug. 10, 2017 / eggplant height Aug. 17, 2017: soil treated Jun. 27, 2017, letters = statistical grouping; for eggplant height Aug. 4, 2017: untreated 124; for eggplant height Aug. 10, 2017: untreated 134
Procedure: In these tests, greenhouse and microplot trials were done to further define the LSS efficacy as stand-alone treatment as well as in combination with Sectagon®. A large number of soil samples were treated using the rates below, expressed as gallons equivalent per acre of (LSS), a 3.07 pounds Calcium Polysulfide per gallon Liquid Lime Sulfur Solution, and Sectagon®, a 4.25 pound per gallon sodium methyldithiocarbamate (metam) solution. Each treatment was performed on six samples to provide statistically valid data. As always, though the treatment is defined in terms of gallons per acre of two products, the testing is with a mixture.
To minimize sample variability that was apparent in certain previous tests, these tests were a greenhouse study, using artificially infested V. dahliae soil. A soil derived from a Romaine lettuce field in Salinas, Calif. (collected September 2015) was confirmed (January 2017) to be highly infested with V. dahliae. Romaine lettuce were grown in the V. dahliae infested soil until microsclerotia built up in the leaves. Infested leaves were harvested, dried, crumbled, and mixed with autoclaved sand. Samples of the mixture were tested for V. dahliae. The mixture was used for the greenhouse study and for the production of pathogen bags for the microplot study.
Artificially infested V. dahliae soil were treated according to the above list. The greenhouse/eggplant study utilize a sterile sand+10% potting mix soil. The inoculated soil was pre-irrigated to ca. 70% field capacity for 14 days, and was then soil placed in various containers, each of which was then treated with appropriate LSS/Metam mixture in a certain volume of water. The soil was thoroughly mixed/agitated, and left sealed for 24 hours to simulate a water seal or tarp. The container was then unsealed 24 hours after application and allowed to sit for 14 days and then mixed and apportioned into 4″ pots for growing eggplant as the bioassay.
To simulate a situation closer to field conditions, a field based microplot study was also established for a few of the above tests, using eggplant. The greenhouse/eggplant study utilized a sterile sand+10% potting mix soil; the inoculated soil was pre-irrigated to ca. 70% field capacity for 14 days; soil was placed in a bucket, treated with appropriate LSS/Metam mixture in correct volume of water, thoroughly mixed/agitated, and left sealed for 24 hours to simulate a water seal or tarp. The bucket was unsealed at 24 hours after application and allowed to sit for 14 days and then mixed and apportioned into 4″ pots for growing eggplant as the bioassay. Seven days after treatment, one soil sample per replicate was taken. V. dahliae control efficacy was assessed according to the methods below, but only on selected treatments due to time pressures. At 14 days after treatment, eggplants were grown in the remaining soil to assess treatment effects on vigor and growth. […] Microplots were located at the USDA Research Field at Spence Road, Salinas, Calif. Treatments were selected based on the results of the previous greenhouse study. Trial site was pre-irrigated for 7 days before placing the Verticillium, V. dahliae, sample bags in the various treatments. Sprinkler irrigation was used to establish 60-80% soil moisture. Four V. dahliae samples per replicate were artificially introduced at 4 and 8 inches depth. Treatments were applied with micro emitter and drip across the microplot. The treatment using a 2 hour drip irrigation period was anticipated to provide penetration to 12 inch depth. After treatment, microplots remained untarped. After 5-7 days V. dahliae samples were recovered.
All LSS and Sectagon® treatments were made, mixing the treatment well with the soil and covering to prevent outgassing on Jun. 27, 2017. On June 28 the lids were removed lids. […]

| Structure (SMILES) | Verticillium quantity (ms/g) Lab A (Verticillium) | Verticillium quantity (ms/g) Lab B (Verticillium) | eggplant height Jul. 27, 2017 [1] | eggplant height Aug. 4, 2017 [1] | eggplant height Aug. 10, 2017 [1] | eggplant height Aug. 17, 2017 ([1]; untreated 138) | eggplant height Aug. 17, 2017 ([1]; untreated 138, listed as comparative example 10) |
| --- | --- | --- | --- | --- | --- | --- | --- |
| CNC(=S)[S-].[Na+] [Comp. Example 3, sodium methyldithiocarbamate] | 0.5 ± 0.5 ms/g | 12 ± 3 ms/g | – | – | – | – | – |
| CNC(=S)[S-].[Na+] [Sample 8, sodium methyldithiocarbamate] | – | – | 140abcde mm | 145 cdefg mm | 159 bcdef mm | 163bcde mm | – |
| CNC(=S)[S-].[Na+] [Sample 9, sodium methyldithiocarbamate] | – | – | 138bcdef mm | 150cdefg mm | 155cdefg mm | 160bcdef mm | – |
| CNC(=S)[S-].[Na+] [Sample 10, sodium methyldithiocarbamate] | – | – | 150abc mm | 160bcde mm | 169abcde mm | 171acbd mm | 171 mm |
